Data published in patent US10647720B2 (Asana Biosciences, LLC, priority 2011, dated 2020).
Values belong to the compound of their own block, whether it stands above or below them.

Assays:
JAK2 = JAK2 (Homo sapiens (Human), UniProt O60674); test: Inhibition of enzymatic JAK2 kinase activity (TR-FRET); type: biochemical
Description: The objective of this assay was to screen compounds in a Time-resolved fluorescence resonance energy transfer (TR-FRET) Enzymatic assay method for their potential to inhibit JAK2 (Janus kinase) activity.
TR-FRET assays are homogeneous proximity assays where Eu-labeled antiphosphotyrosine antibody binds to the phosphorylated substrates labeled with Ulight fluorescence acceptor. Eu can transfer energy to Ulight accepter in the complex and the interaction of two dye-labeled binding partners is detected by the energy transfer between a donor and an acceptor dye, and the subsequent light emission by the acceptor dye. The intensity of the light emission is proportional to the level of Ulight peptide phosphorylation.
Two μL of 10% DMSO in blank, substrate control and positive control wells and 2 μL of test compound in test wells was added. Thirteen μL of assay buffer in blank and substrate control wells and 13 μL of Enzyme buffer mix in positive and test wells was added. The reaction mixture was incubated for 30 minutes at RT on a plate shaker. […] The reaction plate was incubated for 60 minutes at RT on a plate shaker. The reaction was stopped by adding 40 mM EDTA (10 μL) in buffer. Ten μL of antibody was added to all the wells. The plate was read in a Wallac® 1420 Multilabel Counter Victor 3 instrument (Ex: 340 nm Em: 615 & 665 nm) The following calculations were made:
F@ 665 Value-Buffer blank […]

RBL2H3 cells = test: Degranulation assay: β-hexosaminidase release during immune complex mediated degranulation; type: cell-based, Rat
Experimental: The objective of this assay was to examine by Fluorescence method the effect of compounds on β-hexosaminidase release during immune complex mediated degranulation in RBL2H3 cells. Compounds were tested for their ability to inhibit the ability of this immune complex to mediate β-hexosaminidase release, in an enzyme assay with p-nitrophenyl-β-D-glucosaminide as substrate. […] Emission 460 nm). RBL2H3 cells were maintained in MEM complete media containing 10% FBS at 70%-80% confluence in a mammalian cell culture CO2 incubator with 5% CO2 at 37° C. 2×10^5 cells/well were plated in 1 mL of complete media and incubated for 5 hours for cell attachment. Complete media was replaced with 1 mL of serum free MEM media containing 1.2 μg/mL of anti-DNP rat IgE as sensitizing agent and further incubated overnight with 5% CO2 at 37° C. […] Cells were further stimulated with 5 μg/mL of DNP-BSA for 60 minutes. Plates were centrifuged for 5 minutes at 1000 rpm and 25 μL of culture supernatant was transferred from each assay well into a 96 well black coated plate. 25 μL β-NAG substrate was added to this mixture and incubated at room temperature for 30 minutes. The reaction was terminated with 100 μL of stop solution and fluorescence was monitored. (Excitation 355 nm; Emission 460 nm) See, Sanderson, (2010), Cellular Immunology, 262(1): 28-34 and Silverman, (2006) MCB, 26(5):1826-1838, which are incorporated herein by reference. The % release of β-Hexosaminidase for the test compound was calculated using the following formula: RBL2H3 cells were maintained in MEM complete media containing 10% FBS at 70-80% confluence in a mammalian cell culture CO2 incubator with 5% CO2 at 37° C. 5×10^4 cells/well were plated in 200 μL of complete media containing 0.3 μg/mL of anti-DNP rat IgE as sensitizing agent for 24 hours at 37° C. & 5% CO2. The following day, cells were washed twice with PIPES buffer for 10 minutes at 37° C. and replenished with serum free MEM media. […] After incubation with substrate, 150 μL of stop solution was added and fluorescence was monitored. […]

[1] = biological target: Syk (356-635 amino acids)-catalytic domain (Homo sapiens (Human), UniProt P43405); test: Inhibition of enzymatic Syk kinase activity (radiometric); type: biochemical
Description: The objective of this assay was to examine by radiometric method the ability of compounds to inhibit Syk kinase enzyme. Syk is capable of phosphorylating substrates such as VAV, LAT, SLP-76, which in turn activate MAPK, PLCγ signaling pathways. […] This in vitro assay tests the ability of syk to phosphorylate a substrate peptide in the presence of ATP. By using a radio-labeled form of ATP, it is possible to measure the amount of phosphorylation of the substrate. The enzyme transfers a radio-labeled phosphate group from γ32 P labeled ATP to pG4T. Briefly the enzyme was incubated with substrate, radio-labeled & cold ATP and substrate in buffer with or without compounds. At the end of the reaction, the reaction mixture was transferred on to a Multiscreen filter plate and unreacted γ^32P ATP was washed off. The filter plate was dried and the radioactivity was measured on a scintillation counter to estimate the incorporated radioactivity on the substrate. The percent inhibition of activity of the enzyme was calculated by comparing counts in the presence and absence of compounds. […] Microscint-O® reagent (100 μL, Perkin Elmer) was added to each well, the plate was sealed with Topseal®-A microplates and incubated for 10 minutes at room temperature at very low speed on rocker and the plate was read in the Topcount® NXL instrument.

[2] = system: Collagen Induced Arthritis (CIA) in female Lewis rats; test: In vivo chronic study: Collagen Induced Arthritis (CIA); set-up: species or system rat; details: 0.5 mg/Kg
Experimental: Female Lewis rats (8 per group, 6-8 weeks old) were immunized on day 1 with type II collagen (Immunization grade Bovine type II; Chondrex; Cat #20021) emulsified with Complete Freund's Adjuvant (Sigma; Cat # F5881) at a final concentration of 1.2 mg/mL). For the initial immunization, the animals were injected at the base of the tail with 300 μg of the cII (0.25 mL/rat). A booster injection of the same type II collagen emulsified with Incomplete Freund's Adjuvant (Sigma, Cat #F5506) (0.25 mL/rat) was given to the animals on day 8 at the base of the tail (100 μg). The final cII concentration in the booster was […]. […]
Edema: Paw volumes are measured by Plethysmometry for the animals before induction of CIA (Basal readings) and on Day 1, 3, 6 and 9 of dosing period. Both hind paw volumes were measured and edema was calculated by subtracting from the basal mean.
Arthritic score: Animals were scored for the symptoms of arthritis every day starting from Day of onset of disease till the end of the study. Both the hind paws were scored and the total scores were averaged and compared with control. […]
The percent inhibition of Edema was calculated with respect to control by the formula: […]
The percent inhibition of Arthritic score was calculated with respect to control by the formula: […]

Sequence of JAK2 (O60674 808-1132): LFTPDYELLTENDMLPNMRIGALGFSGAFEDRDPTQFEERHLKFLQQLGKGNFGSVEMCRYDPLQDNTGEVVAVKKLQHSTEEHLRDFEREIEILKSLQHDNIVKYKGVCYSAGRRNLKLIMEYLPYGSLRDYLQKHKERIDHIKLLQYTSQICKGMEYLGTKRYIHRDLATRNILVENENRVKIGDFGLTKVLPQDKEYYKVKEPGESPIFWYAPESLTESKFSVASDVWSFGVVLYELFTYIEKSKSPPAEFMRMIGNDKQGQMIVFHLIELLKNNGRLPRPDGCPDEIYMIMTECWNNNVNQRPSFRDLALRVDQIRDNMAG

IC50 (JAK2): < 10 nM
EC50 (RBL2H3 cells; Rattus norvegicus, RBL-2H3, Assay Protocol B (96 well format)): 21 nM
IC50 [1]: < 10 nM
Compound: O=c1[nH]ncc2nc(N3CCCCCC3)nc(Nc3ccc(N4CCN(CCO)CC4)cc3)c12 [Example 190, 2-(azepan-1-yl)-4-((4-(4-(2-hydroxyethyl)piperazin-1-yl)-phenyl)amino)pyrimido[4,5-d]-pyridazin-5(6H)-one]
inhibition at 1 µM (RBL2H3 cells; Rattus norvegicus, RBL-2H3, 1 μM, Assay Protocol B (96 well format)): 83%

Compound: N=Cc1nc(N2CCCCCC2)nc(Nc2ccc(N3CCCC(CC(=O)O)C3)cc2)c1C(N)=O (stereo not shown) [Example 232]
Degranulation % inhibition at 1 μM (RBL2H3 cells; 1 μM, Assay Protocol B (96 well format)): 0%

Compound: CN(Cc1cnc2nc(N)nc(N)c2n1)c1ccc(C(=O)N[C@@H](CCC(=O)O)C(=O)O)cc1 [Methotrexate, methotrexate]
Percent inhibition of Edema (Day 9 of dosing) ([2]; Day 9 of dosing): 6%
Percent inhibition of Arthritic score (Day 10 of dosing) ([2]; Day 10 of dosing): 15%
